Measurements taken from patent US12312332B2 (Merck Sharp & Dohme LLC., priority 2019, dated 2025).

Molecular target: T1, human OX2R (Homo sapiens, UniProt O43614)
T1 construct: expressed in transfected cells; host or cells: Chinese hamster ovary (CHO) cells, kept under G418 selection
T1 sequence (O43614 1-444): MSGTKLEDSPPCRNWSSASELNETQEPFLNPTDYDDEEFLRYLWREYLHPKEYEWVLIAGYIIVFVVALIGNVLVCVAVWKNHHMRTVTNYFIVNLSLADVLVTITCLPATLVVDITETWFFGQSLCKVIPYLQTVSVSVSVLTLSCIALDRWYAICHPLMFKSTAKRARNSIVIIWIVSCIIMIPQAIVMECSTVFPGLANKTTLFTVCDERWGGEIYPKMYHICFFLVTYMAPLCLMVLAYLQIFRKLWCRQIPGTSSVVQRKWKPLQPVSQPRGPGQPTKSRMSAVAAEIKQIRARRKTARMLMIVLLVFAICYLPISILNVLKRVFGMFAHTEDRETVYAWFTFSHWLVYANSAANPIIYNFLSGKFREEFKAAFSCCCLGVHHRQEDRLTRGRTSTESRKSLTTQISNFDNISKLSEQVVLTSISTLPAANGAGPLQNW
Assay: IPOne (IP-One) orexin receptor agonist assay in CHO cells expressing human OX2R
Assay type: cell-based
Conditions: for EC50: CHO cells expressing human OX2R, IP-One detection, 2 hours incubation, four parameter logistic fit, read-out: OX2R Potency, EC50; for % max agonist effect (Emax): human OX2R, percentage of sample raw value/mean max effect (reference compound at 1 uM with 100% activity)

| SMILES | EC50 | % max agonist effect (Emax) |
| --- | --- | --- |
| Cc1ncc(N2CC[C@H](NS(C)(=O)=O)[C@@H]2CO[C@H]2CC[C@@H](c3ccccc3)CC2)cn1 [Example 60, N-((2R,3S)-1-(2-methylpyrimidin-5-yl)-2-((((CIS)-4-phenylcyclohexyl)oxy)methyl)pyrrolidin-3-yl)methanesulfonamide] | 251 nM | 100.0% |
| Cn1cc(N2CC[C@H](NS(C)(=O)=O)[C@@H]2CO[C@H]2CC[C@@H](c3ccccc3)CC2)cn1 (relative stereo) [Example 2, N-((CIS)-1-(1-methyl-1H-pyrazol-4-yl)-2-((((CIS)-4-phenylcyclohexyl)oxy)methyl)pyrrolidin-3-yl)methanesulfonamide] | 896 nM | 89.7% |
| CS(=O)(=O)N[C@H]1CCN(c2ncccc2OC(F)(F)F)[C@H]1CO[C@H]1CC[C@@H](c2ccccc2)CC1 [Example 127] | 162 nM | 100.7% |
| CS(=O)(=O)N[C@H]1CCN(c2csc(C3CC3)n2)[C@H]1CO[C@H]1CC[C@@H](c2ccccc2)CC1 [Example 69, N-((2R,3S)-1-(2-cyclopropylthiazol-4-yl)-2-((((CIS)-4-phenylcyclohexyl)oxy)methyl)pyrrolidin-3-yl)methanesulfonamide] | 271 nM | 99.4% |
| Cc1ncccc1N1CC[C@H](NS(C)(=O)=O)[C@@H]1CO[C@H]1CC[C@@H](c2ccccc2)CC1 [Example 82, N-((2R,3S)-1-(2-methylpyridin-3-yl)-2-((((CIS)-4-phenylcyclohexyl)oxy)methyl)pyrrolidin-3-yl)methanesulfonamide] | 3360 nM | 92.4% |
| CS(=O)(=O)N[C@H]1CCN(c2ccc(C#N)cn2)[C@H]1CO[C@H]1CC[C@@H](c2ccccc2)CC1 [Example 132, N-((2R,3S)-1-(5-cyanopyridin-2-yl)-2-((((CIS)-4-phenylcyclohexyl)oxy)methyl)pyrrolidin-3-yl)methanesulfonamide] | > 10000 nM | 75.3% |
| Cc1ncsc1N1CC[C@H](NS(C)(=O)=O)[C@@H]1CO[C@H]1CC[C@@H](c2ccccc2)CC1 [Example 83, N-((2R,3S)-1-(4-methylthiazol-5-yl)-2-((((CIS)-4-phenylcyclohexyl)oxy)methyl)pyrrolidin-3-yl)methanesulfonamide] | 1070 nM | 94.8% |
| CS(=O)(=O)N[C@H]1CCN(c2cccc(O)c2)[C@H]1CO[C@H]1CC[C@@H](c2ccccc2)CC1 [Example 155, N-((2R,3S)-1-(3-hydroxyphenyl)-2-((((CIS)-4-phenylcyclohexyl)oxy)methyl)pyrrolidin-3-yl)methanesulfonamide] | 1860 nM | 94.4% |
| COc1cc(N2CC[C@H](NS(C)(=O)=O)[C@@H]2CO[C@H]2CC[C@@H](c3ccccc3)CC2)ccn1 [Example 59, N-((2R,3S)-1-(2-methoxypyridin-4-yl)-2-((((CIS)-4-phenylcyclohexyl)oxy)methyl)pyrrolidin-3-yl)methanesulfonamide] | 2860 nM | 87.2% |
| CS(=O)(=O)N[C@H]1CCN(c2ncc(CO)s2)[C@H]1CO[C@H]1CC[C@@H](c2ccccc2)CC1 [Example 102, N-((2R,3S)-1-(5-(hydroxymethyl)thiazol-2-yl)-2-((((CIS)-4-phenylcyclohexyl)oxy)methyl)pyrrolidin-3-yl)methanesulfonamide] | 4830 nM | 67.4% |
| Cc1nccc(N2CC[C@H](NS(C)(=O)=O)[C@@H]2CO[C@H]2CC[C@@H](c3ccccc3)CC2)n1 [Example 48, N-((2R,3S)-1-(2-methylpyrimidin-4-yl)-2-((((CIS)-4-phenylcyclohexyl)oxy)methyl)pyrrolidin-3-yl)methanesulfonamide] | 6830 nM | 77.3% |
| CS(=O)(=O)N[C@H]1CCN(c2ccc(OCCF)cc2)[C@H]1CO[C@H]1CC[C@@H](c2ccccc2)CC1 [Example 36, N-((2R,3S)-1-(4-(2-fluoroethoxy)phenyl)-2-((((CIS)-4-phenylcyclohexyl)oxy)methyl)pyrrolidin-3-yl)methanesulfonamide] | 2790 nM | 54.1% |
| CS(=O)(=O)N[C@H]1CCN(c2cnccc2OCc2ccccc2)[C@H]1CO[C@H]1CC[C@@H](c2ccccc2)CC1 [Example 123, N-((2R,3S)-1-(4-(benzyloxy)pyridin-3-yl)-2-((((CIS)-4-phenylcyclohexyl)oxy)methyl)pyrrolidin-3-yl)methanesulfonamide] | 755 nM | 97.6% |
| CS(=O)(=O)N[C@H]1CCN(c2ncccn2)[C@H]1CO[C@H]1CC[C@@H](c2ccccc2)CC1 [Example 38, N-((2R,3S)-2-((((CIS)-4-phenylcyclohexyl)oxy)methyl)-1-(pyrimidin-2-yl)pyrrolidin-3-yl)methanesulfonamide] | 784 nM | 97.1% |
| COC(=O)c1cnc(N2CC[C@H](NS(C)(=O)=O)[C@@H]2CO[C@H]2CC[C@@H](c3ccccc3)CC2)s1 [Example 104, methyl 2-((2R,3S)-3-(methylsulfonamido)-2-((((CIS)-4-phenylcyclohexyl)oxy)methyl)pyrrolidin-1-yl)thiazole-5-carboxylate] | 1190 nM | 100% |

More lines, in order of falling EC50, values ahead:

| EC50 | % max agonist effect (Emax) | SMILES |
| --- | --- | --- |
| 162 nM | 100.9% | CS(=O)(=O)N[C@H]1CCN(c2ccc(OC(F)F)nc2)[C@H]1CO[C@H]1CC[C@@H](c2ccccc2)CC1 [Example 58, N-((2R,3S)-1-(6-(difluoromethoxy)pyridin-3-yl)-2-((((CIS)-4-phenylcyclohexyl)oxy)methyl)pyrrolidin-3-yl)methanesulfonamide] |
| 72.1 nM | 99.8% | CS(=O)(=O)N[C@H]1CCN(c2cc(C#N)ccn2)[C@H]1CO[C@H]1CC[C@@H](c2ccccc2)CC1 [Example 138, N-((2R,3S)-1-(4-cyanopyridin-2-yl)-2-((((CIS)-4-phenylcyclohexyl)oxy)methyl)pyrrolidin-3-yl)methanesulfonamide] |
| 50 nM | 100.7% | CS(=O)(=O)N[C@H]1CCN(c2ccc(C(F)F)nc2)[C@H]1CO[C@H]1CC[C@@H](c2ccccc2)CC1 [Example 24, N-((2R,3S)-1-(6-(difluoromethyl)pyridin-3-yl)-2-((((CIS)-4-phenylcyclohexyl)-oxy)methyl)pyrrolidin-3-yl)methanesulfonamide] |
| 46.3 nM | 101.1% | COc1cncc(N2CC[C@H](NS(C)(=O)=O)[C@@H]2CO[C@H]2CC[C@@H](c3ccccc3)CC2)c1 [Example 64, N-((2R,3S)-1-(5-methoxypyridin-3-yl)-2-((((CIS)-4-phenylcyclohexyl)oxy)methyl)pyrrolidin-3-yl)methanesulfonamide] |
| 33.7 nM | 101.6% | Cn1ncnc1N1CC[C@H](NS(C)(=O)=O)[C@@H]1CO[C@H]1CC[C@@H](c2ccccc2)CC1 [Example 15, N-((2R,3S)-1-(1-methyl-1H-1,2,4-triazol-5-yl)-2-((((CIS)-4-phenylcyclohexyl)oxy)methyl)pyrrolidin-3-yl)methanesulfonamide] |
| 20.4 nM | 101.0% | CS(=O)(=O)N[C@H]1CCN(c2cccnc2)[C@H]1CO[C@H]1CC[C@@H](c2ccccc2)CC1 [Example 20, N-((2R,3S)-2-((((CIS)-4-phenylcyclohexyl)oxy)methyl)-1-(pyridin-3-yl)pyrrolidin-3-yl)methanesulfonamide] |
| 10.1 nM | 100.9% | CS(=O)(=O)NC1CCCN(c2cccnc2)C1CO[C@H]1CC[C@@H](c2ccccc2)CC1 (stereo partly drawn) [Example 159, N-(2-((((CIS)-4-phenylcyclohexyl)oxy)methyl)-1-(pyridin-3-yl)piperidin-3-yl)methanesulfamide] |
| 2 nM | 100.5% | CS(=O)(=O)N[C@H]1CCN(c2ncc(F)c(O)c2F)[C@H]1CO[C@H]1CC[C@@H](c2ccccc2)CC1 [Example 101, N-((2R,3S)-1-(3,5-difluoro-4-hydroxypyridin-2-yl)-2-((((CIS)-4-phenylcyclohexyl)oxy)methyl)pyrrolidin-3-yl)methanesulfonamide] |
| 0.54 nM | 101.1% | COC[C@@H]1C[C@H](NS(C)(=O)=O)[C@H](CO[C@H]2CC[C@@H](c3cccc(F)c3)CC2)N1c1cc(O)c(F)cn1 [Example 85, N-((2R,3S,5S)-1-(5-fluoro-4-hydroxypyridin-2-yl)-2-((((CIS)-4-(3-fluorophenyl)cyclohexyl)-oxy)methyl)-5-(methoxymethyl)pyrrolidin-3-yl)methanesulfonamide] |
| 0.45 nM | 101.9% | COC[C@@H]1C[C@H](NS(=O)(=O)N(C)C)[C@H](CO[C@H]2CC[C@@H](c3cccc(F)c3)CC2)N1c1cc(O)c(F)cn1 [Example 93, N′-((2R,3S,5S)-1-(5-fluoro-4-hydroxypyridin-2-yl)-2-((((CIS)-4-(3-fluorophenyl)cyclohexyl)oxy)methyl)-5-(methoxymethyl)pyrrolidin-3-yl)-N,N-dimethyl-sulfamide] |
